Test system: healthy subjects
Assay: Clinical liver safety laboratory data over time
Type: in vivo, human
Settings: mean (SD)

Structure (SMILES): COc1cnc(C(=O)Nc2ccc(F)c([C@]34CN(c5ncc(F)cn5)C[C@H]3CSC(N)=N4)c2)cn1 [LY3202626]
- ALP (1 mg daily, Day 1 predose): 62.8 (7.6) U/L
- ALT (1 mg daily, Day 1 predose): 19.0 (11.8) U/L
- AST (1 mg daily, Day 1 predose): 18.4 (6.7) U/L
- Albumin (1 mg daily, Day 1 predose): 43.9 (1.5) g/L
- GGT (1 mg daily, Day 1 predose): 22.3 (14.8) U/L
- Total Bilirubin (1 mg daily, Day 1 predose): 10.7 (2.8) umol/L
- ALP (1 mg daily, Day 2): 62.2 (8.7) U/L
- ALT (1 mg daily, Day 2): 18.9 (11.8) U/L
- AST (1 mg daily, Day 2): 18.4 (6.5) U/L
- Albumin (1 mg daily, Day 2): 43.8 (3.0) g/L
- GGT (1 mg daily, Day 2): 21.8 (15.6) U/L
- Total Bilirubin (1 mg daily, Day 2): 10.7 (2.6) umol/L
- ALP (1 mg daily, Day 3): 62.3 (8.4) U/L
- ALT (1 mg daily, Day 3): 18.7 (10.6) U/L
- AST (1 mg daily, Day 3): 16.1 (4.7) U/L
- Albumin (1 mg daily, Day 3): 43.1 (2.4) g/L
- GGT (1 mg daily, Day 3): 20.9 (13.9) U/L
- Total Bilirubin (1 mg daily, Day 3): 8.9 (2.3) umol/L
- ALP (1 mg daily, Day 4): 64.7 (10.7) U/L
- ALT (1 mg daily, Day 4): 20.4 (10.1) U/L
- AST (1 mg daily, Day 4): 19.6 (5.5) U/L
- Albumin (1 mg daily, Day 4): 44.0 (2.4) g/L
- GGT (1 mg daily, Day 4): 21.4 (14.5) U/L
- Total Bilirubin (1 mg daily, Day 4): 7.4 (4.2) umol/L
- ALP (1 mg daily, Day 6): 61.0 (10.9) U/L
- ALT (1 mg daily, Day 6): 18.9 (7.0) U/L
- AST (1 mg daily, Day 6): 17.7 (4.8) U/L
- Albumin (1 mg daily, Day 6): 43.1 (2.4) g/L
- GGT (1 mg daily, Day 6): 19.4 (11.8) U/L
- Total Bilirubin (1 mg daily, Day 6): 8.5 (4.5) umol/L
- ALP (1 mg daily, Day 8): 62.4 (11.3) U/L
- ALT (1 mg daily, Day 8): 20.8 (8.4) U/L
- AST (1 mg daily, Day 8): 21.3 (13.2) U/L
- Albumin (1 mg daily, Day 8): 44.1 (2.0) g/L
- GGT (1 mg daily, Day 8): 18.8 (11.5) U/L
- Total Bilirubin (1 mg daily, Day 8): 7.9 (5.0) umol/L
- ALP (1 mg daily, Day 10): 62.6 (10.0) U/L
- ALT (1 mg daily, Day 10): 24.6 (19.6) U/L
- AST (1 mg daily, Day 10): 30.2 (39.0) U/L
- Albumin (1 mg daily, Day 10): 43.3 (2.2) g/L
- GGT (1 mg daily, Day 10): 18.7 (11.3) U/L
- Total Bilirubin (1 mg daily, Day 10): 7.2 (2.1) umol/L
- ALP (1 mg daily, Day 12): 62.1 (9.7) U/L
- ALT (1 mg daily, Day 12): 24.2 (21.2) U/L
- AST (1 mg daily, Day 12): 26.2 (29.7) U/L
- Albumin (1 mg daily, Day 12): 43.2 (1.5) g/L
- GGT (1 mg daily, Day 12): 18.0 (9.9) U/L
- Total Bilirubin (1 mg daily, Day 12): 8.0 (2.8) umol/L
- ALP (1 mg daily, Day 14): 61.3 (10.6) U/L
- ALT (1 mg daily, Day 14): 22.8 (17.2) U/L
- AST (1 mg daily, Day 14): 20.2 (13.1) U/L
- Albumin (1 mg daily, Day 14): 43.6 (2.6) g/L
- GGT (1 mg daily, Day 14): 18.0 (10.1) U/L
- Total Bilirubin (1 mg daily, Day 14): 9.1 (2.7) umol/L
- ALP (1 mg daily, Day 15): 59.6 (9.6) U/L
- ALT (1 mg daily, Day 15): 20.8 (15.5) U/L
- AST (1 mg daily, Day 15): 18.3 (9.7) U/L
- Albumin (1 mg daily, Day 15): 42.6 (2.2) g/L
- GGT (1 mg daily, Day 15): 18.2 (11.0) U/L
- Total Bilirubin (1 mg daily, Day 15): 9.2 (2.5) umol/L
- ALP (1 mg daily, Day 17): 63.9 (10.6) U/L
- ALT (1 mg daily, Day 17): 23.2 (12.8) U/L
- AST (1 mg daily, Day 17): 19.3 (6.0) U/L
- Albumin (1 mg daily, Day 17): 46.0 (2.8) g/L
- GGT (1 mg daily, Day 17): 20.1 (11.8) U/L
- Total Bilirubin (1 mg daily, Day 17): 8.2 (4.0) umol/L
- ALP (6 mg daily, Day 1 predose): 64.6 (16.9) U/L
- ALT (6 mg daily, Day 1 predose): 17.6 (5.5) U/L
- AST (6 mg daily, Day 1 predose): 18.9 (4.0) U/L
- Albumin (6 mg daily, Day 1 predose): 45.0 (1.7) g/L
- GGT (6 mg daily, Day 1 predose): 21.6 (10.7) U/L
- Total Bilirubin (6 mg daily, Day 1 predose): 8.9 (3.6) umol/L
- ALP (6 mg daily, Day 2): 66.4 (20.2) U/L
- ALT (6 mg daily, Day 2): 17.8 (3.8) U/L
- AST (6 mg daily, Day 2): 18.0 (3.0) U/L
- Albumin (6 mg daily, Day 2): 45.8 (2.5) g/L
- GGT (6 mg daily, Day 2): 21.7 (9.5) U/L
- Total Bilirubin (6 mg daily, Day 2): 9.8 (4.5) umol/L
- ALP (6 mg daily, Day 3): 65.8 (18.6) U/L
- ALT (6 mg daily, Day 3): 18.9 (4.7) U/L
- AST (6 mg daily, Day 3): 17.8 (2.9) U/L
- Albumin (6 mg daily, Day 3): 46.3 (2.1) g/L
- GGT (6 mg daily, Day 3): 22.3 (11.2) U/L
- Total Bilirubin (6 mg daily, Day 3): 7.4 (3.1) umol/L
- ALP (6 mg daily, Day 4): 67.8 (18.4) U/L
- ALT (6 mg daily, Day 4): 20.9 (5.2) U/L
- AST (6 mg daily, Day 4): 19.8 (4.7) U/L
- Albumin (6 mg daily, Day 4): 47.0 (1.9) g/L
- GGT (6 mg daily, Day 4): 24.0 (11.0) U/L
- Total Bilirubin (6 mg daily, Day 4): 6.9 (2.4) umol/L
- ALP (6 mg daily, Day 6): 63.9 (17.8) U/L
- ALT (6 mg daily, Day 6): 18.9 (4.4) U/L
- AST (6 mg daily, Day 6): 19.7 (4.9) U/L
- Albumin (6 mg daily, Day 6): 45.3 (2.7) g/L
- GGT (6 mg daily, Day 6): 22.0 (10.8) U/L
- Total Bilirubin (6 mg daily, Day 6): 8.4 (4.0) umol/L
- ALP (6 mg daily, Day 8): 64.6 (17.6) U/L
- ALT (6 mg daily, Day 8): 18.6 (2.5) U/L
- AST (6 mg daily, Day 8): 20.8 (6.2) U/L
